{
  "source": "paper PMC3670040",
  "about": "“Structure of Lipid Kinase p110β/p85β Elucidates an Unusual SH2-Domain-Mediated Inhibitory Mechanism” (Molecular Cell, 2011)",
  "system": "p110β/p85β-nic",
  "experiment": "ATPase activity (ADP formation) in the absence of lipid substrate, Transcreener",
  "format": "biochemical, mouse",
  "settings": "p110β/p85-niSH2 and p110β/p85-icSH2 complexes; absence of lipid substrate",
  "experimental": "Figure 1 Inhibition of p110β by p85-Type Regulatory Subunits and Activation of the Complexes by RTK Phosphopeptide (A) Domain organization of p110β and the regulatory subunits p85α, p85β, and p55γ. The color scheme for the domains is used for all figures, unless otherwise stated. […] The inhibition is released upon addition of the 10 μM PDGFR pY2. […] The y axis is expressed as a change in fluorescence polarization (ΔmP), which is obtained by subtracting the observed polarization for the construct at a given enzyme concentration from the maximum fluorescence polarization for that construct. The plateau in these assays arises due to the competitive nature of the ADP detection system, based on displacement of ADP-Alexa 633 tracer from the ADP^2-antibody by ADP generated during the PI3K assay (see Supplemental Experimental Procedures). All measurements were done in triplicates, and the error bars indicate the standard error of the mean (SEM). […]\nThe lipid kinase activity was determined using the Transcreener ADP2 FP Assay (BellBrook Labs, Madison, WI) according to manufacturer‟s specifications. This non-radioactive assay measures activity by quantitating the amount of ADP formed. The ADP formed by PI3K competes with fluorescent ADP tracer for binding to an anti-ADP antibody, thereby decreasing fluorescence polarization. […]",
  "note": "Square brackets hold non-standard residues; d marks the D form. Ends that are not written are not given here. pY = N[C@@H](Cc1ccc(OP(=O)(O)O)cc1)C(=O)O",
  "data": [
    {"substance": "ESDGG[pY]MDMSKDESID[pY]VPMLDMKGDIKYADIE [pY2, bis-phosphopeptide (PDGFR 735–767, with pY740 and pY751)]", "values": [
      {"measurement": "ATPase activity in the presence of pY2", "value": "enhanced"}
    ]}
  ]
}
